Source: publication PMC9415015, “CK2 Inhibition and Antitumor Activity of 4,7-Dihydro-6-nitroazolo[1,5-a]pyrimidines” (Molecules, 2022)

Columns and labels:
human recombinant CK2α1 = target: T1, human recombinant CK2α1 (Homo sapiens, UniProt P68400); test: CK2 ADP-Glo kinase assay; assay type: biochemical; conditions: for Effect on CK2 activity in initial screening (in words): initial screening at 50 μM
T1 construct: purchased Promega V4482
Method: Kinase activity was determined using the enzyme system CK2α1 (Promega V4482, Madison, WI, USA) and the ADP-Glo^TM kit (Promega V9101, Madison, WI, USA) in white 96-well plates (Nunc U96 Microwell 267350, Denmark). The reaction was carried out using 50 ng/well of N-GST labeled human recombinant CK2α1, 0.1 µg/µL bovine casein as a substrate, 10 μM ATP in 40 mM Tris buffer solution (pH 7.50) containing 20 mM MgCl2, 0.1 mg/mL of BSA, and 50 μM of DTT. Test compounds were added to 1.25% DMSO (final concentration 0.25%) and preincubated with kinase for 10 min. The reaction was carried out for 60 min at 25 °C in a thermostatically controlled PST-60HL shaker (Biosan. […], Latvia). ATP-dependent luminescence was measured at an integration time of 1000 ms using the Infinite M200 PRO microplate reader (Tecan. Austria). The ATP-competitive inhibitor Staurosporin (CAS 62996–74-1, Alfa Aesar J62837, 99+%) was used as a positive control. The experiments were performed in two parallels.

A-172 cells = test: MTT test, glioblastoma cells; assay type: cell-based, human; conditions: for Cytotoxicity index IC50 ± SE, A-172: MTT, 72 h incubation
Method: (§1) The studies were carried out on cultured cells of human glioblastoma (A-172, ATCC CRL 1620), human osteosarcoma (Hos, ATCC CRL 1543), human embryonic rhabdomyosarcoma (Rd, ATCC CRL 136), and human embryonic kidney 293 cells (Hek-293, ATCC CRL 1573) obtained from the Shared research facility “Vertebrate cell culture collection” (Institute of Cytology RAS, Saint-Petersburg, Russia). The cells were cultured using DMEM / F-12 medium containing 10% fetal bovine serum at 37°C, 5% CO2, and 98% humidity. Subculturing was performed using 0.25% trypsin solution when the culture reached ≥90% confluency.
(§2) The compounds were dissolved in DMSO. The solutions were diluted with DMEM/F-12 culture medium with 10% fetal bovine serum to the studied concentrations: 8, 16, 32, 64, 128, 256, 512, and 1024 µM. […] Cisplatin (cPt) was used as a positive control.
(§3) Cells were seeded in 96-well plates at a concentration of 4 × 10^3 cells per well. After 24 h, test compounds were added to the wells in a given concentration range. Then the cells were incubated for 72 h, after which a solution of MTT (3-(4,5-dimethyl-2-thiazolyl)-2,5-diphenyl-2H-tetrazolium bromide) was added to the cultures at 20 µL (5 mg/mL) to the well. After 2.5 h, the medium was removed from the wells and 200 µL of a mixture of DMSO/i-PrOH 1/1 was added. Optical density was measured on a plate spectrophotometer at a wavelength of 570 nm.
(§4) Statistical data processing was carried out in the RStudio program (Version 1.4.1106 © […] RStudio, PBC, Boston, MA, USA) using the R package (version 4.1.2). The cytotoxicity index (IC50) was calculated by plotting dose–response curves using the “drc” package.

Rd cells = test: MTT test, embryonic rhabdomyosarcoma cells; assay type: cell-based, human; conditions: for Cytotoxicity index IC50 ± SE, Rd: MTT, 72 h incubation
Method: as §1, §2, §3, §4

Hos cells = test: MTT test, osteosarcoma cells; assay type: cell-based, human; conditions: for Cytotoxicity index IC50 ± SE, Hos: MTT, 72 h incubation
Method: as §1, §2, §3, §4

Hek-293 cells = test: MTT test, human embryonic kidney cells; assay type: cell-based; conditions: 72 h incubation
Method: as §1, §2, §3, §4

[1] = tested on: A-172, Rd, Hos and Hek-293 cells; test: MTT test, all four cell lines together; assay type: cell-based; conditions: Homo sapiens, read-out: IC50 in all cases
Method: as §1, §2
(§5) Cells were seeded in 96-well plates at a concentration of 4 × 10^3 cells per well. After 24 h, test compounds were added to the wells in a given concentration range. […] Optical density was measured on a plate spectrophotometer at a wavelength of 570 nm.
as §4

[2] = tested on: tumor cells A-172, Rd, and Hos; test: MTT test, tumor cell lines together; assay type: cell-based; conditions: Homo sapiens, A 172, MTT, across A-172, Rd, 50 µM bound holds 'mostly'
Method: as §1, §2, §5, §4

[3] = Solubility noted during the cytotoxicity study; conditions: cytotoxicity study limited because of it

T1 sequence (P68400 whole entry): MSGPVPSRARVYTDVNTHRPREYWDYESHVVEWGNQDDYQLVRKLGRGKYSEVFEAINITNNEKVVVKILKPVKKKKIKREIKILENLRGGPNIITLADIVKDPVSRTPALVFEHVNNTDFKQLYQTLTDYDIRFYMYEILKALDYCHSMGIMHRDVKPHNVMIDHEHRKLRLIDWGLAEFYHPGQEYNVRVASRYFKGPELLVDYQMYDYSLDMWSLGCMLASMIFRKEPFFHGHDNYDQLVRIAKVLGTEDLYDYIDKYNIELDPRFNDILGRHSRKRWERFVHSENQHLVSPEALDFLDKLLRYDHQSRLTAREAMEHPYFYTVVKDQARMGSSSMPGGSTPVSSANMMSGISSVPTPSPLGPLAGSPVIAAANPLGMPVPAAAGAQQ

Compound | Effect on CK2 activity in initial screening (in words) (human recombinant CK2α1) | Cytotoxicity index IC50 ± SE, A-172 (A-172 cells) [µM] | Cytotoxicity index IC50 ± SE, Rd (Rd cells) [µM] | Cytotoxicity index IC50 ± SE, Hos (Hos cells) [µM] | Cytotoxicity index IC50 ± SE, Hek-293 (Hek-293 cells) [µM] | IC50 [1] [µM] | Selectivity ratio SR (A-172) (A-172 cells; normal/cancer cell (Hek-293 vs A-172)) | Selectivity ratio SR (RD) (Rd cells; normal/cancer cell (Hek-293 vs Rd)) | Selectivity ratio SR (HOS) (Hos cells; normal/cancer cell (Hek-293 vs Hos)) | IC50 [2] [µM] | melting point | Solubility (in words) [3] | inhibition at 50 µM (human recombinant CK2α1; 50 μM compound, 10 μM ATP, n.a. = not active, read-out: CK2 Inhibition at 50 μM, m ± SD (%)) [%]
O=[N+]([O-])C1=CNc2ncnn2C1c1ccccc1 (stereo not shown) [Compound 6a, 6-Nitro-7-phenyl-4,7-dihydro-1,2,4-triazolo[1,5-a]pyrimidine] | paradoxically enhance CK2 activity | 434.08 ± 18.02 | 448.21 ± 22.53 | 542.85 ± 21.45 | 1131.79 ± 77.86 | > 400 | – | – | – | – | – | – | –
CC1=C([N+](=O)[O-])C(c2ccccc2)n2nc(C(F)(F)F)nc2N1 (stereo not shown) [Compound 6d, 5-Methyl-6-nitro-7-phenyl-2-trifluoromethyl-4,7-dihydro-1,2,4-triazolo[1,5-a]pyrimidine] | paradoxically enhance CK2 activity | 27.49 ± 1.67 | 37.28 ± 3.77 | 23.31 ± 1.84 | 50.07 ± 4.43 | – | 1.8 | 1.3 | 2.1 | ≤ 50 | 233 to 235 °C | – | –
O=[N+]([O-])C1=CNc2ccnn2C1c1ccccc1 (stereo not shown) [Compound 5a, 6-Nitro-7-phenyl-4,7-dihydropyrazolo[1,5-a]pyrimidine] | paradoxically enhance CK2 activity | – | – | – | – | – | – | – | – | – | – | low solubility | –
CC1=C([N+](=O)[O-])C(c2ccc([N+](=O)[O-])cc2)n2nccc2N1 (stereo not shown) [Compound 5c, 6-Nitro-5-methyl-7-(4ʹ-nitrophenyl)-4,7-dihydropyrazolo[1,5-a]pyrimidine] | paradoxically enhance CK2 activity | – | – | – | – | – | – | – | – | – | – | low solubility | –
CCC1=C([N+](=O)[O-])C(c2ccc(O)c(OC)c2)n2ncc(C#N)c2N1 (stereo not shown) [Compound 5j, 3-Cyano-5-Ethyl-6-nitro-7-(3ʹ-methoxy-4ʹ-hydroxyphenyl)-4,7-dihydropyrazolo[1,5-a]pyrimidine] | – | 566.09 ± 17.12 | 673.44 ± 20.70 | 522.38 ± 16.16 | 581.39 ± 43.90 | > 400 | – | – | – | – | – | – | –
CCC1=C([N+](=O)[O-])C(c2ccc(OC)cc2)n2ncc(C#N)c2N1 (stereo not shown) [Compound 5i, 3-Cyano-5-ehtyl-6-Nitro-7-(4ʹ-metoxyphenyl)-4,7-dihydropyrazolo[1,5-a]pyrimidine] | – | 145.19 ± 8.96 | 105.10 ± 10.70 | 88.44 ± 5.85 | 69.52 ± 8.69 | – | – | – | – | – | 249 °C (dec.) | – | 3.66 ± 37.6
